13 compounds from patent publication US20080033031A1, “ANTIBIOTIC COMPOUNDS, COMPOSITIONS AND METHODS OF TREATMENT” (priority 2004, published 2008) can be followed below.

Series [1] has as its system S. aureus ATCC 29213. Nature of the series: MIC against S. aureus ATCC 29213. In kind it is cell-based, Staphylococcus aureus. The procedure:
(§1) The microbiological activity of clindamycin analogs was evaluated by measuring the minimum inhibitory concentrations (MIC) of each compound against Staphylococcus aureus (S. aureus) and Propionibacterium acnes (P. acnes). These two microorganisms were selected, as they are commonly known to be the contributing factors for acne. The compounds evaluated were the following: • a. […] Clindamycin sulfone (CSO2) and its salts • d. Clindamycin phosphate • e.

In series [2] the test system is P. acnes ATCC 11827. Nature of the series: MIC against P. acnes ATCC 11827. The format is cell-based, Propionibacterium acnes. As to the method:
as §1

Series [3] in a line: Stability studies with benzoyl peroxide in buffer solutions. In kind it is physicochemical. Particulars: 1% analog with 5% BPO, pH 3 buffer, 50° C. The procedure: The concentrations of each of the clindamycin analogs and BPO in the mixtures were 1% (w/w) and 5% (w/w), respectively.
Samples were prepared by dissolving each of the clindamycin analogs and suspending the BPO powder in the buffer solutions of different pHs. Samples were placed either at RT or at 50° C. Samples were pulled at time intervals and tested for the appropriate clindamycin analog and pH.
The figures show the plots of the percent remaining (% of initial) of the clindamycin analog versus time. The percent of initial is obtained by normalizing the concentration at each time point to the initial concentration.

In series [4] the test system is S. aureus ATCC 6538. The series is described as follows: MIC against S. aureus ATCC 6538. The format is cell-based. The note with it: Staphylococcus aureus, ATCC6538. The procedure: as §1
Series [5] has as its system P. acnes ATCC 1127. The series is described as follows: MIC against P. acnes ATCC 1127. In kind it is cell-based, Propionibacterium acnes. Particulars: Cutibacterium acnes, ATCC1127. The procedure:
as §1

Where [6] appears, read: Staphylococcus aureus, ATCC29213, read-out: MIC.
[7] abbreviates: Cutibacterium acnes, ATCC11827, read-out: MIC.

As a reminder, the MIC is the lowest concentration that inhibits growth of the organism.

≈ marks a conversion by molar mass, not a printed value. Read-outs that look alike come from different tables or passages of the source.

For the compound `CCCC1CC(C(=O)NC(C(C)Cl)C2OC(S(C)(=O)=O)C(O)C(O)C2O)N(C)C1.Cl` (centres unmarked) [CSO2 HCl], the minimum inhibitory concentration (MIC) turned out to be 1 µg/mL in series [1] and 0.5 µg/mL in series [2].

With `CCCC1CC(C(=O)NC(C(C)Cl)C2OC(S(C)(=O)=O)C(O)C(O)C2O)N(C)C1.O=S(=O)(O)O` (centres unmarked) [CSO2 sulfate], the MIC in series [1] worked out at 1 µg/mL; in series [2], 0.5 µg/mL.

Turning to `CCC[C@@H]1CC(C(=O)NC(C(C)Cl)[C@H]2O[C@H](S(C)(=O)=O)[C@H](O)[C@@H](O)[C@H]2O)N(C)C1` (some centres unmarked) [CSO2, Clindamycin sulfone], the results for the MIC in series [1] (setting [6]) and in series [2] (setting [7]) were 1 to 2 µg/mL (≈ 2.19 to 4.38 µM) and 0.5 to 1 µg/mL (≈ 1.09 to 2.19 µM), respectively. In addition, the “remained in the solution (% of initial)” value in series [3] (after 8 weeks of storage) is recorded as “about 85%”. The “remaining in the samples (% of initial)” value in series [3] (after 12 weeks of storage) is on record as “about 70%”.

As for `CCC[C@@H]1C[C@@H](C(=O)N[C@@H]([C@H]2O[C@H]([S+](C)[O-])[C@H](O)[C@@H](O)[C@H]2O)[C@H](C)Cl)N(C)C1.Cl` (some centres unmarked) [CSO A HCl], the MIC in series [1] is 16 µg/mL; in series [2], 8 µg/mL.

As to `CCCC1CC(C(=O)NC(C(C)Cl)C2OC([S+](C)[O-])C(O)C(O)C2O)N(C)C1.O=C(O)C=CC(=O)O` (centres unmarked) [CSO A fumarate], the MIC in series [1] worked out at 16 µg/mL; in series [2], 8 µg/mL.

With `CCCC1CC(C(=O)NC(C(C)Cl)C2OC([S+](C)[O-])C(O)C(O)C2O)N(C)C1.O=C(O)C=CC(=O)O` (centres unmarked) [CSO A maleate], the minimum inhibitory concentration (MIC) in series [1] and in series [2] was 16 µg/mL throughout.

As for `CCCC1CC(C(=O)NC(C(C)Cl)C2OC([S+](C)[O-])C(O)C(O)C2O)N(C)C1.O=C(O)CCC(=O)O` (centres unmarked) [CSO A succinate], the MIC in series [1] and in series [2] was 16 µg/mL in each case.

For `CCCC1CC(C(=O)NC(C(C)Cl)C2OC([S+](C)[O-])C(O)C(O)C2O)N(C)C1.Cl` (centres unmarked) [CSO B HCl], the minimal inhibitory concentration (MIC) is 2 µg/mL in series [1] and 0.5 µg/mL in series [2].

As to `CCCC1CC(C(=O)NC(C(C)Cl)C2OC([S+](C)[O-])C(O)C(O)C2O)N(C)C1.O=C(O)c1ccccc1` (centres unmarked) [CSO B benzoate], the minimal inhibitory concentration (MIC) in series [1] stood at 2 µg/mL; in series [2], 0.5 µg/mL.

With `CCCC1CC(C(=O)NC(C(C)Cl)C2OC([S+](C)[O-])C(O)C(O)C2O)N(C)C1.O=C(O)CC(O)(CC(=O)O)C(=O)O` (centres unmarked) [CSO B citrate], the MIC is 2 µg/mL in series [1] and 0.5 µg/mL in series [2].

On to `CCCC1CC(C(=O)NC(C(C)Cl)C2OC([S+](C)[O-])C(O)C(O)C2O)N(C)C1.O=C(O)C=CC(=O)O` (centres unmarked) [CSO B fumarate], for which the MIC in series [1] turned out to be 2 µg/mL; in series [2] it was 0.5 µg/mL.

Take `CCC[C@@H]1C[C@@H](C(=O)N[C@@H]([C@H]2O[C@H](SC)[C@H](OP(=O)(O)O)[C@@H](O)[C@H]2O)[C@H](C)Cl)N(C)C1` [Clindamycin phosphate USP, Clindamycin phosphate, reference compound]: the minimal inhibitory concentration (MIC) in series [1] (setting [6]) was 16 to 32 µg/mL; in series [2] (setting [7]) it was 2 to 4 µg/mL; in series [4], 200 µg/mL; in series [5], 200 µg/mL.

Regarding `CC[C@H]1OC(=O)[C@H](C)[C@@H](O[C@H]2C[C@@](C)(OC)[C@@H](O)[C@H](C)O2)[C@H](C)[C@@H](O[C@@H]2O[C@H](C)C[C@H](N(C)C)[C@H]2O)[C@](C)(O)C[C@@H](C)C(=O)[C@H](C)[C@@H](O)[C@]1(C)O` [Erythromycin USP, Erythromycin, reference compound], the MIC in series [1] (setting [6]) was 0.25 to 0.5 µg/mL (≈ 0.341 to 0.681 µM); in series [2] (setting [7]), 0.062 µg/mL (≈ 0.0845 µM); in series [4], less than 0.8 µg/mL; in series [5], 1.6 µg/mL (≈ 2.18 µM).
